Assay results taken from publication PMC7531004, “Discovery of gramicidin A analogues with altered activities by multidimensional screening of a one-bead-one-compound library” (Nature Communications, 2020).
Where a SMILES comes first, the peptide text is derived from it. [ ]: non-standard residue; d: D form. The star is where a group is joined. NHCH2CH2OH = OCCN*; For = O=C*

How the values were obtained:
[1] = H+/Na+ transport assay of bead-derived peptides (one-point); assay type: biochemical; parameters: key: relative activity; mean of two control wells = 1.00; settings: bead-derived peptide solution, EYPC/EYPG LUVs;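 note: relative to parent gramicidin A activity set to 1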
How it was run: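 One-point screen: peptide + pyranine-loaded LUVs, 30 min RT with vortexing, 96-well. Read-out is fluorescence intensity scaled as 100 × (Ix – I0)/(Imax – I0). Imax from Triton X-100, I0 from untreated vesicles, and the mean of the two control wells is set to 1.00.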

[2] = test system: P388 mouse leukemia cells; settings: 92 h
How it was run: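 First, library peptide stocks are diluted 250-fold in RPMI1640 with 10% heat-inactivated FBS. Next, they are mixed with P388 cells to give 1 × 10^4 cells/mL and incubated 92 h at 37 °C, 5% CO2. Finally, viability (%) is scored by WST-1 absorbance at 415 nm.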

CC(C)C[C@@H](NC(=O)[C@H](C)NC(=O)CNC(=O)[C@@H](NC=O)C(C)C)C(=O)N[C@@H](C)C(=O)N[C@@H](C(=O)N[C@H](C(=O)N[C@@H](C(=O)N[C@@H](Cc1c[nH]c2ccccc12)C(=O)N[C@H](CC(C)C)C(=O)N[C@@H](Cc1c[nH]c2ccccc12)C(=O)N[C@H](CC(C)C)C(=O)N[C@@H](Cc1c[nH]c2ccccc12)C(=O)N[C@H](CC(C)C)C(=O)N[C@@H](Cc1c[nH]c2ccccc12)C(=O)NCCO)C(C)C)C(C)C)C(C)C [compound 1, Gramicidin A] (For-VGA[dL]A[dV]V[dV]W[dL]W[dL]W[dL]W-NHCH2CH2OH)
H+/Na+ transport activity normalized against the value of 1 (1.00) [1]: 1.07
cell viability/% [2]: 100.0%
